Measured values from patent US20260207591A1, “CRYSTAL FORM OF FLUORINE-SUBSTITUTED INDAZOLE COMPOUND AND USE THEREOF” (SUNSHINE LAKE PHARMA CO., LTD., priority 2022, published 2026).

Experiments:
[1] = High-humidity test (stability study); format: physicochemical; settings: for Purity (%): HPLC
Experimental: (§1) Place an appropriate amount of the test sample from one batch in a flat weighing bottle, spreading it into a thin layer ≤5 mm thick. Store at 25° C. and 90%±5% relative humidity (RH) for 30 days. Collect samples at 0, 5, 10, and 30 days for analysis according to the key stability test items. Observe any color changes and determine purity by HPLC.

[2] = Stability studies, overall conclusion; format: physicochemical
Experimental: Example 5 Stability Studies
as §1, with “sample” for “sample from one batch”, “60° C.±2°” for “25°”, “C.” for “C. and 90%±5% relative humidity (RH)”
as §1
(§2) Expose the sample to visible light (4500 lx±500 lx) and UV light (energy ≥0.7 W·h/m^2) for 30 days. Collect samples at 0, 5, 10, 15, and 30 days for analysis according to the key stability test items. Observe any color changes and determine purity by HPLC.

[3] = Hygroscopicity test by dynamic vapor sorption (DVS); format: physicochemical; settings: for Weight Gain at 60% RH (%) / Weight Gain at 80% RH (%) / Weight Gain at 95% RH (%): DVS, 25° C.; for resistance to deliquescence: high-humidity conditions
Experimental: The hygroscopicity of the present invention was determined using a DVS INT-Std dynamic vapor and gas sorption analyzer from Surface Measurement Systems Ltd. (UK) with the following parameters: humidity test range: 0%-95%, gas flow: 200 mL/min, temperature: 25° C., test points: one measurement point every 5% humidity increase.
An appropriate amount of the test sample was taken, and its hygroscopicity was measured using a dynamic vapor sorption (DVS) instrument. The classification criteria for hygroscopicity characteristics and moisture absorption weight gain (as per Appendix 9103 “Guidelines for Hygroscopicity Testing of Drugs” from the Chinese Pharmacopoeia 2020 Edition, test conditions: 25° C.±1° C., 80%±2% relative humidity (RH)) are described in Table 2 below: […]

[4] = Light-exposure test (stability study); format: physicochemical; settings: visible 4500 lx±500 lx and UV, 30 days; for Purity (%): HPLC
Source text: as §2

[5] = Crystal form conversion in solvents; format: physicochemical; settings: solvents such as ethanol
[6] = High-temperature test (stability study); format: physicochemical
Experimental: (1) High-Temperature Test:
as §1, with “sample” for “sample from one batch”, “60° C.±2°” for “25°”, “C.” for “C. and 90%±5% relative humidity (RH)”

[7] = Pharmacokinetics test in Beagle dogs, oral capsules; format: in vivo; settings: dog, plasma, male Beagle dogs, 5 mg/kg
Experimental: Male Beagle dogs of 8-12 kg were divided into 3 groups, 3 dogs in each group, and capsules containing test samples were orally administered at a dose of 5 mg/kg, and blood was collected at time points of 0.25, 0.5, 1.0, 2.0, 4.0, 6.0, 8.0 and 24 h. Standard curve was plotted based on concentrations of the samples in a suitable range, the concentration of the test sample in the plasma sample was measured and quantified by AB SCIEX API4000-type LC-MS/MS at MRM mode. Pharmacokinetic parameters were calculated according to drug concentration-time curve using a noncompartmental method by WinNonLin 6.3 software.

Solubility (HPLC) = format: physicochemical
Experimental: The solubility of the present invention was determined using an Agilent 1200 High Performance Liquid Chromatograph DAD/VWD detector with an Agilent XDB-C18 model (4.6×50 mm, 5 μm). Detection wavelength of 266 nm, flow rate of 1.0 mL/min, the column temperature of 35° C., mobile phase A: acetonitrile—0.01 M ammonium acetate=10:90 (V:V) analysis methods: acetonitrile-mobile phase A=70:30 (V:V), running time: 10 minutes.

[8] = 0 day (start of stability tests)
[9] = High-Humidity, 25° C., 90%±5% RH, 30 days

Row | Outward [1, 8] | Purity (%) [1, 8] [%] | Outward [1, 9] | Purity (%) [1, 9] [%] | stability under various storage conditions [2] | Weight Gain at 60% RH (%) [3] [%] | Weight Gain at 80% RH (%) [3] [%] | Weight Gain at 95% RH (%) [3] [%] | resistance to deliquescence [3] | Outward [4] | Purity (%) [4] [%] | crystal form conversion in solvents [5] | polymorphic transformation under high-temperature conditions [6] | AUC(0-t) [7] [µg·h/mL] | Cmax [7] [µg/mL] | Tmax [7] [h] | solubility (in words) (Solubility (HPLC)) | crystal structure stability (polymorphic transition) [2] | SMILES
1 | Pale yellow | 99.76 | Pale yellow | 99.78 | excellent stability | 0.09 | 0.14 | 0.25 | highly resistant to deliquescence | Pale yellow | 99.75 | – | – | – | – | – | – | – | COC(=O)Nc1c(N)nc(-c2nn(Cc3ccccc3F)c3c(F)cccc23)nc1N [Crystal Form III, methyl (4,6-diamino-2-(7-fluoro-1-(2-fluorobenzyl)-1H-indazol-3-yl)pyrimidin-5-yl)carbamate]
2 | Off-white | 99.52 | Off-white | 99.51 | – | – | – | – | – | Pale yellow | 99.36 | exhibit crystal form conversion | undergoes polymorphic transformation | – | – | – | – | – | COC(=O)Nc1c(N)nc(-c2nn(Cc3ccccc3F)c3c(F)cccc23)nc1N [Crystal Form V, methyl (4,6-diamino-2-(7-fluoro-1-(2-fluorobenzyl)-1H-indazol-3-yl)pyrimidin-5-yl)carbamate]
3 | – | – | – | – | – | – | – | – | – | – | – | exhibit crystal form conversion | – | – | – | – | – | – | COC(=O)Nc1c(N)nc(-c2nn(Cc3ccccc3F)c3c(F)cccc23)nc1N [Crystal Form I, methyl (4,6-diamino-2-(7-fluoro-1-(2-fluorobenzyl)-1H-indazol-3-yl)pyrimidin-5-yl)carbamate]
4 | Off-white | 99.77 | Off-white | 99.80 | excellent stability | 0.15 | 0.20 | 0.26 | highly resistant to deliquescence | Off-white | 99.75 | – | – | 12.1 | 1.14 | 10 | good solubility | less prone to polymorphic transition | COC(=O)Nc1c(N)nc(-c2nn(Cc3ccccc3F)c3c(F)cccc23)nc1N [Crystal Form XI, methyl (4,6-diamino-2-(7-fluoro-1-(2-fluorobenzyl)-1H-indazol-3-yl)pyrimidin-5-yl)carbamate]
